Counter-ions that a name gives are not always drawn.

As to `Cc1ccc(-c2cc(C(F)(F)F)nn2-c2ccc(S(N)(=O)=O)c(F)c2)cc1` (as salt: trifluoroacetate) [Example 4, 4-[5-(4-Methylphenyl)-3-(trifluoromethyl)-1H-pyrazol-1-yl]-2-fluorobenzenesulfonamide], the melting point – broadly, the temperature, or range, at which the solid turns liquid – fell in the range of 126 to 128 °C.

`NS(=O)(=O)c1ccc(-n2nc(C(F)(F)F)cc2-c2ccc(Cl)cc2)cc1F` (as salt: trifluoroacetate) [Example 5, 4-[5-(4-Chlorophenyl)-3-trifluoromethyl-1H-pyrazol-1-yl]-2-fluorobenizenesulfonamide]: the melting point was 140 to 141 °C.

`COc1ccc(-c2cc(C(F)(F)F)nn2-c2ccc(S(N)(=O)=O)c(F)c2)cc1F` (as salt: trifluoroacetate) [Example 6, 4-[5-(3-Fluoro-4-methoxy)-3-trifluoromethyl-1H-pyrazol-1-yl]-2 fluorobenzenesulfonamide] yielded a melting point of 124 to 126 °C.

With `NS(=O)(=O)c1ccc(-n2nc(C(F)(F)F)cc2-c2ccc(F)cc2)cc1F` (as salt: trifluoroacetate) [Example 8, 2-Fluoro-4-[5-(4-fluorophenyl)-3-(trifluoromethyl)-1H-pyrazol-1-yl]benzenesulfonamide], the melting point is 127 to 130 °C.

Molecule `COc1ccccc1-c1cc(C(F)(F)F)nn1-c1ccc(S(N)(=O)=O)c(F)c1` (as salt: trifluoroacetate) [Example 9, 2-Fluoro-4-[5-(2-methoxyphenyl)-3-(trifluoromethyl)-1H-pyrazol-1-yl]benzenesulfonamide] showed a melting point of 159 to 160 °C.

Molecule `CS(=O)(=O)c1ccc(-c2cc(C(F)F)nn2-c2ccc(F)cc2)cc1F` (as salt: trifluoroacetate) [Example 18, 3-(Difluoromethyl)-5-[3-fluoro-4-(methylsulfonyl)phenyl]-1-(4-fluorophenyl)-1H-pyrazole] yielded a melting point of 201 to 202 °C.

With `CS(=O)(=O)c1ccc(-c2cc(C(F)F)nn2C2CCCCC2)cc1F` (as salt: trifluoroacetate) [Example 19, 1-Cyclohexyl-3-(difluoromethyl)-5-[3-fluoro-4-(methylsulfonyl)phenyl]-1H-pyrazole], the melting point lay in the range of 138 to 139 °C.

For `Cc1ccc(-n2nc(C(F)F)cc2-c2ccc(S(C)(=O)=O)c(F)c2)cc1Cl` (as salt: trifluoroacetate) [Example 20, 1-(3-Chloro-4-methylphenyl)-3-(difluoromethyl)-5-[3-fluoro-4-(methylsulfonyl)phenyl]-1H-pyrazole], the melting point lay within 146 to 147 °C.

On to `CS(=O)(=O)c1ccc(-c2cc(C(F)F)nn2-c2cccc(C(F)(F)F)c2)cc1F` (as salt: trifluoroacetate) [Example 21, 3-(Difluoromethyl)-5-[3-fluoro-4-(methylsulfonyl)-phenyl]-1-[3-(trifluoromethyl)-phenyl]-1H-pyrazole], for which the melting point was 110 to 111 °C.

In the case of `NS(=O)(=O)c1ccc(-c2cscc2-c2ccccc2)cc1F` [Example 1, 2-Fluoro-4-(4-phenyl-3-thienyl)benzenesulfonamide], the melting point was in the range of 170.9 to 171 °C.

`CS(=O)(=O)c1ccc(-c2cscc2-c2ccccc2)cc1F` [Example 2, 3-[3-Fluoro-4-(methylsulfonyl)phenyl]-4-phenylthiophene]: the melting point lay in the range of 140 to 141 °C.

`Cc1ccc(-c2cc(C(F)F)nn2-c2ccc(S(N)(=O)=O)c(F)c2)cc1Cl` [Example 3, 4-[5-(3-chloro-4-methylphenyl)-3-(difluoromethyl)-1H-pyrazol-1-yl]-2-fluorobenzenesulfonamide] gave a melting point of 160 to 161 °C.

Turning to `COc1ccc(-c2cc(C(F)F)nn2-c2ccc(S(N)(=O)=O)c(F)c2)cc1F` [Example 10, 4-[3-(Difluoromethyl)-5-(3-fluoro-4-methoxyphenyl)-1H-pyrazol-1-yl]-2-fluorobenzenesulfonamide], the melting point is 167 to 169 °C.

`CS(=O)(=O)c1ccc(-c2cc(C(F)(F)F)nn2-c2ccc(F)cc2)cc1F` [Example 11, 5-[3-Fluoro-4-(methylsulfonyl)phenyl]-1-(4-fluorophenyl)-3-(trifluoromethyl)-1H-pyrazole] had a melting point of 228 to 229 °C.

Take `CS(=O)(=O)c1ccc(-c2cc(C(F)(F)F)nn2C2CCCCC2)cc1F` [Example 12, 1-Cyclohexyl-5-[3-fluoro-4-(methylsulfonyl)phenyl]-3-(trifluoromethyl)-1H-pyrazole]: the melting point was 228 to 229 °C.

`CS(=O)(=O)c1ccc(-c2cc(C(F)(F)F)nn2-c2ccc(OC(F)(F)F)cc2)cc1F` [Example 14, 5-[3-Fluoro-4-(methylsulfonyl)phenyl]-3-(trifluoromethyl)-1-[4-(trifluoromethoxy)phenyl]-1H-pyrazole] registered a melting point of 110 to 112 °C.

Regarding `Cc1ccc(-n2nc(C(F)(F)F)cc2-c2ccc(S(C)(=O)=O)c(F)c2)cc1Cl` [Example 15, 1-(3-Chloro-4-methylphenyl)-5-[3-fluoro-4-(methylsulfonyl)phenyl]-3-(trifluoromethyl)-1H-pyrazole], the melting point fell in the range of 144 to 145 °C.

In the case of `CS(=O)(=O)c1ccc(-c2cc(C(F)(F)F)nn2-c2ccc(C#N)cc2)cc1F` [Example 16, 4-[5-[3-Fluoro-4-(methylsulfonyl)phenyl]-3-(trifluoromethyl)-1H-pyrazol-1-yl]benzonitrile], the melting point was in the range of 152 to 153 °C.

In turn, `Cc1cccc(-n2nc(C(F)(F)F)cc2-c2ccc(S(C)(=O)=O)c(F)c2)c1` [Example 17, 5-[3-Fluoro-4-(methylsulfonyl)phenyl]-1-(3-methylphenyl)-3-(trifluoromethyl)-1H-pyrazole] had a melting point of 129 to 130 °C.

`Cc1onc(-c2ccc(F)cc2)c1-c1ccc(S(N)(=O)=O)c(F)c1` [Example 22, 2-Fluoro-4-[3-(4-fluorophenyl)-5-methyl-4-isoxazolyl]benzenesulfonamide] had a melting point of 176 to 177 °C.

`CS(=O)(=O)c1ccc(C2=C(c3ccccc3)C(=O)OC2)cc1F` [Example 24, 4-[3-Fluoro-4-(methylsulfonyl)phenyl]-3-phenyl-2(5H)-furanone] registered a melting point of 161 to 162 °C.

For the origin of these results see patent US20040092552A1, “2-Fluorobenzenesulfonyl compounds for the treatment of inflammation” (priority 2003, published 2004).
